{"source": "patent US20170007704A1", "about": "“CARRIER AND PHARMACEUTICAL COMPOSITIONS FOR INTRASINAL DELIVERY AND USES THEREOF” (priority 2015, published 2017)", "tested_on": "multi-drug resistant P. aeruginosa", "test": "Susceptibility of the patient's positive bacterial culture", "assay_type": "cell-based", "settings": "positive bacterial culture of the patient before treatment", "description": "The patient was a person with an 8 year history of chronic rhinosinusitis with daily and recurrent symptoms including facial congestion, facial pain and pressure, headaches and mucopurulent nasal drainage. The patient achieved limited success with previous treatments which included oral antibiotics, oral/nasal corticosteroids, antibiotic irrigation, saline rinses and suctioning. A positive bacterial culture indicated the presence of multi-drug resistant P. aeruginosa, susceptible only to colistimethate. Colistimethate was only commercially available as a solution for intravenous infusion, requiring hospitalization and constant monitoring for neurotoxicity and nephrotoxicity. In order to avoid the intravenous route of administration and the necessary hospitalization, a novel topical formulation was prescribed, consisting of: […]"}
{"substance": "colistimethate", "values": [{"measurement": "susceptibility of cultured pathogen", "result": "susceptible"}]}
